Measured values reported in ChEMBL document CHEMBL5550165, “Novel quinoxaline analogs as telomeric G-quadruplex ligands exert antitumor effects related to enhanced immunomodulation” (Eur J Med Chem, 2024).
The source made the active and inactive calls. The calls are words filed in the database; no cut-off is given here.

Experiments:
Quadruplex DNA = experiment: Stabilization of G-quadruplex 5-FAM-telomeric24 DNA-TAMRA-3 (unknown origin) assessed as change in melting temperature incubated for 2 hrs by FRET assay; format: nucleic-acid assay
[1] = Cytotoxicity against human MCF-10A cells incubated for 24 hrs by CCK-8 reagent based spectrophotometric analysis; format: toxicity, cell-based
MDA-MB-231 = experiment: Cytotoxicity against human MDA-MB-231 cells incubated for 24 hrs by CCK-8 reagent based spectrophotometric analysis; format: functional, cell-based; conditions: MDA-MB-231, 24 h
4T1 [2] = experiment: Cytotoxicity against mouse 4T1 cells incubated for 24 hrs by CCK-8 reagent based spectrophotometric analysis; format: functional, cell-based; conditions: 4T1, 24 h
MCF7 = experiment: Cytotoxicity against human MCF7 cells incubated for 24 hrs by CCK-8 reagent based spectrophotometric analysis; format: functional, cell-based; conditions: MCF7, 24 h
U2OS = experiment: Cytotoxicity against human U2OS cells incubated for 24 hrs by CCK-8 reagent based spectrophotometric analysis; format: functional, cell-based
BMDC = experiment: Induction of immunogenic cell death in BALB/c mouse BMDC cells co-cultured with mouse 4T1 cells assessed as increase in CD11c+ CD80+ CD86 cells maturation at 5 uM incubated for 24 hrs by flow cytometry (reference value: 69.4 %); format: functional
4T1 [3] = experiment: Antitumor activity against mouse 4T1 cells implanted in BALB/c mouse assessed as reduction in tumor weight at 2 mg/kg,ip every other day for 14 days; format: functional, organism-based; conditions: time 14.0 day
[4] = Toxicity in BALB/c mouse implanted with mouse 4T1 cells assessed as decrease in body weight at 2 mg/kg,ip every other day for 14 days; format: organism-based; conditions: in vivo, 336 h, time 14 day
[5] = Toxicity in BALB/c mouse implanted with mouse 4T1 cells assessed as decrease in heart weight at 2 mg/kg,ip every other day for 14 days; format: organism-based; conditions: in vivo, 336 h, time 14 day
[6] = Toxicity in BALB/c mouse implanted with mouse 4T1 cells assessed as decrease in liver weight at 2 mg/kg,ip every other day for 14 days; format: organism-based; conditions: in vivo, 336 h, time 14 day
[7] = Toxicity in BALB/c mouse implanted with mouse 4T1 cells assessed as decrease in spleen weight at 2 mg/kg,ip every other day for 14 days; format: organism-based; conditions: in vivo, 336 h, time 14 day
[8] = Toxicity in BALB/c mouse implanted with mouse 4T1 cells assessed as decrease in lung weight at 2 mg/kg,ip every other day for 14 days; format: organism-based; conditions: in vivo, 336 h, time 14 day
[9] = Toxicity in BALB/c mouse implanted with mouse 4T1 cells assessed as decrease in kidney weight at 2 mg/kg,ip every other day for 14 days; format: organism-based; conditions: in vivo, 336 h, time 14 day
4T1 [10] = experiment: Antitumor activity against mouse 4T1 cells implanted in BALB/c mouse assessed as damage in tumor tissue at 2 mg/kg,ip every other day for 14 days by hematoxylin and eosin staining analysis; format: functional, organism-based; conditions: time 14.0 day
4T1 [11] = experiment: Antitumor immunity against mouse 4T1 cells implanted in BALB/c mouse assessed as increase in proportion of CD4+ T cells in spleen at 2 mg/kg,ip every other day for 14 days by flow cytometry; format: functional, organism-based; conditions: time 14.0 day
4T1 [12] = experiment: Antitumor immunity against mouse 4T1 cells implanted in BALB/c mouse assessed as increase in proportion of CD8+ T cells in spleen at 2 mg/kg,ip every other day for 14 days by flow cytometry; format: functional, organism-based; conditions: time 14.0 day
4T1 [13] = experiment: Antitumor immunity against mouse 4T1 cells implanted in BALB/c mouse assessed as increase in proportion of CD4+ T cells in tumor at 2 mg/kg,ip every other day for 14 days by flow cytometry; format: functional, organism-based; conditions: time 14.0 day
4T1 [14] = experiment: Antitumor immunity against mouse 4T1 cells implanted in BALB/c mouse assessed as increase in proportion of CD8+ T cells in tumor at 2 mg/kg,ip every other day for 14 days by flow cytometry; format: functional, organism-based; conditions: time 14.0 day
4T1 [15] = experiment: Antitumor immunity against mouse 4T1 cells implanted in BALB/c mouse assessed as increase in proportion of CD4+ T cells in tumor at 2 mg/kg,ip every other day for 14 days by immunohistochemistry staining based analysis; format: functional, organism-based; conditions: time 14.0 day
4T1 [16] = experiment: Antitumor immunity against mouse 4T1 cells implanted in BALB/c mouse assessed as increase in proportion of CD8+ T cells in tumor at 2 mg/kg,ip every other day for 14 days by immunohistochemistry staining based analysis; format: functional, organism-based; conditions: time 14.0 day
4T1 [17] = experiment: Antitumor immunity against mouse 4T1 cells implanted in BALB/c mouse assessed as increase in serum IL-6 level at 2 mg/kg,ip every other day for 14 days by ELISA; format: functional, organism-based; conditions: time 14.0 day
4T1 [18] = experiment: Antitumor immunity against mouse 4T1 cells implanted in BALB/c mouse assessed as increase in serum TNF-alpha level at 2 mg/kg,ip every other day for 14 days by ELISA; format: functional, organism-based; conditions: time 14.0 day

Row | SMILES | ΔTm (Quadruplex DNA) [°C] | IC50 at 24 h [1] [µM] | IC50 (MDA-MB-231) [µM] | IC50 (4T1 [2]) [µM] | IC50 (MCF7) [µM] | IC50 (U2OS) [µM] | also measured
1 | COc1ccc2nc(-c3ccc(N4CCN(CCO)CC4)cc3)c(-c3ccc(N4CCN(CCO)CC4)cc3)nc2c1 | 4.1 | 6.7 | 1.3 | 22.1 | 15.9 | 8 | 
2 | OCCN1CCN(c2ccc(-c3nc4ccc(C(F)(F)F)cc4nc3-c3ccc(N4CCN(CCO)CC4)cc3)cc2)CC1 | 1.5 | 4.1 | 2 | 4.3 | 6.3 | 3.7 | 
3 | COc1ccc2nc(-c3ccc(N4CCN(CCN(C)C)CC4)cc3)c(-c3ccc(N4CCN(CCN(C)C)CC4)cc3)nc2c1 | 5.6 | 3.4 | 2.3 | 5.3 | 9.5 | 6.9 | 
4 | CN(C)CCN1CCN(c2ccc(-c3nc4ccc(F)cc4nc3-c3ccc(N4CCN(CCN(C)C)CC4)cc3)cc2)CC1 | 8.3 | 2.7 | 2.9 | 2.3 | 6.1 | 3.6 | 
5 | COc1cccc2c1C(=O)c1c(O)c3c(c(O)c1C2=O)C[C@@](O)(C(=O)CO)C[C@@H]3O[C@H]1C[C@H](N)[C@H](O)[C@H](C)O1 [DOXORUBICIN] |  |  |  |  |  |  | Activity (BMDC): 81.5%; Activity (4T1 [3]): Active; Activity [4]: Toxic; Activity [5]: Toxic; Activity [6]: Toxic; Activity [7]: Toxic; Activity [8]: Toxic; Activity [9]: Toxic; Activity (4T1 [10]): Active; Activity (4T1 [11]): Active; Activity (4T1 [12]): Active; Activity (4T1 [13]): Active; Activity (4T1 [14]): Active; Activity (4T1 [15]): Active; Activity (4T1 [16]): Active; Activity (4T1 [17]): Active; Activity (4T1 [18]): Active
6 | CN(C)CCN1CCN(c2ccc(-c3nc4ccc(C(F)(F)F)cc4nc3-c3ccc(N4CCN(CCN(C)C)CC4)cc3)cc2)CC1 | 6.6 | 1.5 | 2 | 1.7 | 4.3 | 3.5 | 
7 | OCCN1CCN(c2ccc(-c3nc4ccc(F)cc4nc3-c3ccc(N4CCN(CCO)CC4)cc3)cc2)CC1 | 3.2 | 6.3 | 1.8 | 12.9 | 10.5 | 4.5 | 
8 | CN(C)CCN1CCN(c2ccc(-c3nc4cc5ccccc5cc4nc3-c3ccc(N4CCN(CCN(C)C)CC4)cc3)cc2)CC1 | 5.7 | 3.7 | 5.2 | 4 | 8.4 | 13.3 | 
9 | OCCN1CCN(c2ccc(-c3nc4cc5ccccc5cc4nc3-c3ccc(N4CCN(CCO)CC4)cc3)cc2)CC1 | 1.9 | 2.8 | 2.5 | 4.9 | 18.4 | 6.6 | 
10 | COc1ccc2nc(-c3ccc(N(C)CCN(C)C)cc3)c(-c3ccc(N(C)CCN(C)C)cc3)nc2c1 | 6.6 | 13.7 | 6.2 | 9.4 | 5.8 | 8.8 | 

Further lines, with some results ahead:

Row | ΔTm (Quadruplex DNA) [°C] | SMILES | IC50 at 24 h [1] [µM] | IC50 (MDA-MB-231) [µM] | IC50 (4T1 [2]) [µM] | IC50 (MCF7) [µM] | IC50 (U2OS) [µM] | also measured
11 | 6 | CN(C)CCN(C)c1ccc(-c2nc3ccc(F)cc3nc2-c2ccc(N(C)CCN(C)C)cc2)cc1 | 8.8 | 3.1 | 5.6 | 4.2 | 3.1 | 
12 | 0.4 | CN(CCO)c1ccc(-c2nc3ccc(F)cc3nc2-c2ccc(N(C)CCO)cc2)cc1 | 18 | 33.2 | 31.6 | > 40 | > 40 | 
13 | 0.5 | CN(CCO)c1ccc(-c2nc3ccc(C(F)(F)F)cc3nc2-c2ccc(N(C)CCO)cc2)cc1 | 20.5 | > 40 | > 40 | > 40 | 19.3 | 
14 | 0.1 | COc1ccc2nc(-c3ccc(N(C)CCO)cc3)c(-c3ccc(N(C)CCO)cc3)nc2c1 | 24.1 | > 40 | > 40 | > 40 | > 40 | 
15 | 7.9 | CN(C)CCN(C)c1ccc(-c2nc3cc4ccccc4cc3nc2-c2ccc(N(C)CCN(C)C)cc2)cc1 | 1.3 | 1.4 | 2.9 | 1.9 | 1.5 | 
16 | 0.9 | CN(CCO)c1ccc(-c2nc3cc4ccccc4cc3nc2-c2ccc(N(C)CCO)cc2)cc1 | 11.1 | 20.9 | 36.4 | > 40 | > 40 | 
